How the values were obtained:
[1] = target: NUAK family SNF1-like kinase 2 (Homo sapiens) (UniProt Q9H093); assay: Inhibition of wild-type human partial length SNARK (P22 to A333 residues) expressed in mammalian expression system assessed as residual activity at 1 uM by Kinomescan method relative to control
[2] = target: Tyrosine-protein kinase receptor Tie-1 (Homo sapiens) (UniProt P35590); assay: Inhibition of wild-type human partial length TIE1 (T819 to A1138 residues) expressed in bacterial expression system assessed as residual activity at 1 uM by Kinomescan method relative to control
Chain of Tyrosine-protein kinase receptor Tie-1 (Homo sapiens) (P35590 whole entry, the tested form may be a part): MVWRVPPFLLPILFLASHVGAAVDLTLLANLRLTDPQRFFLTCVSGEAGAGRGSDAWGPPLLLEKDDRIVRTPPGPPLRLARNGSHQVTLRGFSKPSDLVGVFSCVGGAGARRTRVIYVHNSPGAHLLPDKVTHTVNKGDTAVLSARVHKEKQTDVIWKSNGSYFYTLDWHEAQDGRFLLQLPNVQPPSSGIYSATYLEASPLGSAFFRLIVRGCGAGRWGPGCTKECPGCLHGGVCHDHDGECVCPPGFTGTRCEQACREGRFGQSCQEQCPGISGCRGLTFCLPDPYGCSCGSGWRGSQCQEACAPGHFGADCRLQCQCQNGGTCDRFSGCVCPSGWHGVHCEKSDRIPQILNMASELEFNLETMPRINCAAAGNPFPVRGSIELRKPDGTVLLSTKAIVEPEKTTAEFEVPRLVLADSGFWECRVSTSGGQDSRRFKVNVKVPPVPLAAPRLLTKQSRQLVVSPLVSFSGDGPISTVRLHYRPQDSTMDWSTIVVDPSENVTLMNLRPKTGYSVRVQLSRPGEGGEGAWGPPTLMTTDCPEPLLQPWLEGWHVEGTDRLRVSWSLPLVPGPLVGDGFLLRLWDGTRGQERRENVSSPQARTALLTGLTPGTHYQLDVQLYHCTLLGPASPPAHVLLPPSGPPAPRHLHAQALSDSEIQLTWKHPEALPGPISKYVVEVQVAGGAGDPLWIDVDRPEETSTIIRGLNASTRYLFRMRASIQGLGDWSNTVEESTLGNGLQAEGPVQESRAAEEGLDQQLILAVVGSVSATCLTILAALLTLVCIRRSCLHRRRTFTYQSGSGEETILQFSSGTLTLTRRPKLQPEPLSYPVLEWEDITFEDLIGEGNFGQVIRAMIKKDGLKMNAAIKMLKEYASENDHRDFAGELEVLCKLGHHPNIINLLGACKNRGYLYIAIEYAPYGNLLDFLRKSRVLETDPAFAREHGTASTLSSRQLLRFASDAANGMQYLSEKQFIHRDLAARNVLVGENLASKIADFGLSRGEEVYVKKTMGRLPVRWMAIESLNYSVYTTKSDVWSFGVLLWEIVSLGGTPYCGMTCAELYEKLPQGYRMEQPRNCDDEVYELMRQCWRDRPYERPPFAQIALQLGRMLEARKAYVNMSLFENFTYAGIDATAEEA

[3] = target: cGMP-dependent protein kinase 2 (Homo sapiens) (UniProt Q13237); assay: Inhibition of wild-type human partial length PRKG2 (S422 to F762 residues) expressed in mammalian expression system assessed as residual activity at 1 uM by Kinomescan method relative to control
[4] = target: RAC-alpha serine/threonine-protein kinase (Homo sapiens) (UniProt P31749); assay: Inhibition of wild-type human partial length AKT1 expressed in bacterial expression system assessed as residual activity at 1 uM by Kinomescan method relative to control
Chain of RAC-alpha serine/threonine-protein kinase (Homo sapiens) (P31749 whole entry, the tested form may be a part): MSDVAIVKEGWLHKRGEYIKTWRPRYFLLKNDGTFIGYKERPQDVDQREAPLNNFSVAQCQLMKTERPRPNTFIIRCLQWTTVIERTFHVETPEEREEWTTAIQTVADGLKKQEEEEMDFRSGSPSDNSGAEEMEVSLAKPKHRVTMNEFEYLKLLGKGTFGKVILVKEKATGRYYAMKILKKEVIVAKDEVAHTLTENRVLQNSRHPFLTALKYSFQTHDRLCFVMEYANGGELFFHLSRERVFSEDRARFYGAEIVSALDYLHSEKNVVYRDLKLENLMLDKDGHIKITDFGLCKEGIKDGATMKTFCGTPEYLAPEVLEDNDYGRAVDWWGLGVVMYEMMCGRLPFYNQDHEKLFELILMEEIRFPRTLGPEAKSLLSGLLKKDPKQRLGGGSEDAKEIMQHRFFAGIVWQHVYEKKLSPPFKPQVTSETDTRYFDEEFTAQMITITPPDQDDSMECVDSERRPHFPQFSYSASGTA

[5] = tested on: Tyrosine-protein kinase ABL1 (Homo sapiens), P00519 [M351T]; assay: Inhibition of human phosphorylated ABL1 M351T mutant (S229 to K512 residues) expressed in mammalian expression system assessed as residual activity at 1 uM by Kinomescan method relative to control
[6] = target: Serine/threonine-protein kinase NIM1 (Homo sapiens) (UniProt Q8IY84); assay: Inhibition of wild-type human partial length NIM1 (Q44 to N355 residues) expressed in mammalian expression system assessed as residual activity at 1 uM by Kinomescan method relative to control
Chain of Serine/threonine-protein kinase NIM1 (Homo sapiens) (Q8IY84 whole entry, the tested form may be a part): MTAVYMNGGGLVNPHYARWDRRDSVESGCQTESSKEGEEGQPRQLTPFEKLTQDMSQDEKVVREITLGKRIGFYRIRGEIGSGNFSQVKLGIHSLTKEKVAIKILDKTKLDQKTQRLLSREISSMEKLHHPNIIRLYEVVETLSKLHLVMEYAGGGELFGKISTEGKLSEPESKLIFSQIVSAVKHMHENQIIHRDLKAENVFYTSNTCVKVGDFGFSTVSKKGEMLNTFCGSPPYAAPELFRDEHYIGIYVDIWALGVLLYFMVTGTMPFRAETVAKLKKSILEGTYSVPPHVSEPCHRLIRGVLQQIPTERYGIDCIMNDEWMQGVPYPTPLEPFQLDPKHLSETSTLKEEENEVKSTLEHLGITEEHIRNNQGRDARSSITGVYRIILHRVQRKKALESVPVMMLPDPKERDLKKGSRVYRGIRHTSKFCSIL

[7] = target: Homeodomain-interacting protein kinase 3 (Homo sapiens) (UniProt Q9H422); assay: Inhibition of wild-type human partial length HIPK3 (M153 to N562 residues) expressed in mammalian expression system assessed as residual activity at 1 uM by Kinomescan method relative to control
[8] = target: Serine/threonine-protein kinase 38-like (Homo sapiens) (UniProt Q9Y2H1); assay: Inhibition of wild-type human partial length NDR2 (N34 to E447 residues) expressed in bacterial expression system assessed as residual activity at 1 uM by Kinomescan method relative to control
[9] = target: Mitogen-activated protein kinase 10 (Homo sapiens) (UniProt P53779); assay: Inhibition of wild-type human partial length JNK3 (V28 to Q422 residues) expressed in mammalian expression system assessed as residual activity at 1 uM by Kinomescan method relative to control
[10] = target: Protein kinase C eta type (Homo sapiens) (UniProt P24723); assay: Inhibition of wild-type human partial length PRKCH (S324 to P683 residues) expressed in bacterial expression system assessed as residual activity at 1 uM by Kinomescan method relative to control
[11] = target: Death-associated protein kinase 1 (Homo sapiens) (UniProt P53355); assay: Inhibition of wild-type human partial length DAPK1 (M1 to F296 residues) expressed in bacterial expression system assessed as residual activity at 1 uM by Kinomescan method relative to control
Chain of Death-associated protein kinase 1 (Homo sapiens) (P53355 whole entry, looked up, the tested form may be a part): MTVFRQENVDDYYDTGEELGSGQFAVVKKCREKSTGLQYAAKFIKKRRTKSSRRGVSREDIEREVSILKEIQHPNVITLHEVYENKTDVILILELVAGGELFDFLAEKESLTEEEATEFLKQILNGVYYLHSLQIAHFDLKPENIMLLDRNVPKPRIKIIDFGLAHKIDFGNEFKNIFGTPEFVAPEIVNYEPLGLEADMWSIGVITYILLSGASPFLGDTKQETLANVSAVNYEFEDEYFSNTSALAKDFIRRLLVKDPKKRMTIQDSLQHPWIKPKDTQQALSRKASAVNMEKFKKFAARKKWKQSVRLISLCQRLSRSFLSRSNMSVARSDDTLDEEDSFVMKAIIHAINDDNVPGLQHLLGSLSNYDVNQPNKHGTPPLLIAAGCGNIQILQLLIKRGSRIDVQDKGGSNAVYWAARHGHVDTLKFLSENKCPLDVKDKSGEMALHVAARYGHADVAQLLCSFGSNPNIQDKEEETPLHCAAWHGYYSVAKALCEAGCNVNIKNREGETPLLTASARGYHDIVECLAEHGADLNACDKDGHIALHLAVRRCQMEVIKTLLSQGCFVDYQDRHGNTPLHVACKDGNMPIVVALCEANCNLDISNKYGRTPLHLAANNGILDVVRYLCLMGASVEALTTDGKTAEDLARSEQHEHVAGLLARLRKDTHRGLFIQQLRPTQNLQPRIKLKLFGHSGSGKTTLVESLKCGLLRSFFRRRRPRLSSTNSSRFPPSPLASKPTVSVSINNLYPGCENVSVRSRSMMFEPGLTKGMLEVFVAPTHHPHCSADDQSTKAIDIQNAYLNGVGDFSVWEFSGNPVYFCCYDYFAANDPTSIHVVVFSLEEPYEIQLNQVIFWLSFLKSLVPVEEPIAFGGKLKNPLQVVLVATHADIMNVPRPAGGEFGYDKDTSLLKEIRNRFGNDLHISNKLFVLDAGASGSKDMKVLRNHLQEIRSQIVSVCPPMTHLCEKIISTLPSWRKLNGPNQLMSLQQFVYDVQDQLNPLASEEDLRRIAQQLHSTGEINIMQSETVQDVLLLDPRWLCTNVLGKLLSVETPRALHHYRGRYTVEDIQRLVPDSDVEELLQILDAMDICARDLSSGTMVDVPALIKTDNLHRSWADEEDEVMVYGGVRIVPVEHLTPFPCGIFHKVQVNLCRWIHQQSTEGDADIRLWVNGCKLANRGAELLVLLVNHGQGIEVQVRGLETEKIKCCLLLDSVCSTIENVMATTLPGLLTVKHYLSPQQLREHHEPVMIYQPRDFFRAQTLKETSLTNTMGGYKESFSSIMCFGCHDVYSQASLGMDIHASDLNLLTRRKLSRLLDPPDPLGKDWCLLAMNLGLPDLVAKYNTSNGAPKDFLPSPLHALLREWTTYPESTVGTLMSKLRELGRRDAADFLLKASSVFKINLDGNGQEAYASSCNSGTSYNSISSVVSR

[12] = tested on: Mast/stem cell growth factor receptor Kit (Homo sapiens), P10721 [UNDEFINED MUTATION]; assay: Inhibition of human partial length KIT V559D/V654 double mutant (Y545 to D952 residues) expressed in bacterial expression system assessed as residual activity at 1 uM by Kinomescan method relative to control
[13] = tested on: Hepatocyte growth factor receptor (Homo sapiens), P08581 [M1250T]; assay: Inhibition of human partial length MET M1250T mutant (D1010 to S1367 residues) expressed in bacterial expression system assessed as residual activity at 1 uM by Kinomescan method relative to control
[14] = target: Tyrosine-protein kinase receptor UFO (Homo sapiens) (UniProt P30530); assay: Inhibition of wild-type human partial length AXL (R497 to Y821 residues) expressed in bacterial expression system assessed as residual activity at 1 uM by Kinomescan method relative to control
[15] = target: Cyclin-dependent kinase-like 2 (Homo sapiens) (UniProt Q92772); assay: Inhibition of wild-type human partial length CDKL2 (M1 to D327 residues) expressed in bacterial expression system assessed as residual activity at 1 uM by Kinomescan method relative to control
Chain of Cyclin-dependent kinase-like 2 (Homo sapiens) (Q92772 whole entry, the tested form may be a part): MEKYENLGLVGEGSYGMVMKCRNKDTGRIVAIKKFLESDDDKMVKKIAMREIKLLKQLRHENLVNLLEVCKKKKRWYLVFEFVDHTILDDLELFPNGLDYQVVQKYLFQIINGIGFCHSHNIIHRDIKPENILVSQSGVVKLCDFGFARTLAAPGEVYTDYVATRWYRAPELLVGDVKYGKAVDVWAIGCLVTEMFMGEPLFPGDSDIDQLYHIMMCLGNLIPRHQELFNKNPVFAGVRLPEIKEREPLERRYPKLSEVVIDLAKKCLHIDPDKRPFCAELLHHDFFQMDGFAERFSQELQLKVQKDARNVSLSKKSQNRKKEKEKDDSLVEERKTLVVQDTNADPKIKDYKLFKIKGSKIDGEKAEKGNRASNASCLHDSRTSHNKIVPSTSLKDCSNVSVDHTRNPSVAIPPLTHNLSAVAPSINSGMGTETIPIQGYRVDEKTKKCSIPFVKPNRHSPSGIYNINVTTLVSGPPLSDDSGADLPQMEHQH

[16] = target: Non-receptor tyrosine-protein kinase TNK1 (Homo sapiens) (UniProt Q13470); assay: Inhibition of wild-type human full length TNK1 (M1 to P661 residues) expressed in bacterial expression system assessed as residual activity at 1 uM by Kinomescan method relative to control
SKM-1 = assay: Growth inhibition of human SKM1 cells; format: functional; conditions: Homo sapiens, SKM-1
[17] = target: Tyrosine-protein kinase HCK (Homo sapiens) (UniProt P08631); assay: Inhibition of wild-type human full length HCK (M22 to P526 residues) expressed in bacterial expression system assessed as residual activity at 1 uM by Kinomescan method relative to control
[18] = target: Mitogen-activated protein kinase kinase kinase kinase 2 (Homo sapiens) (UniProt Q12851); assay: Inhibition of wild-type human partial length MAP4K2 (M1 to G318 residues) expressed in mammalian expression system assessed as residual activity at 1 uM by Kinomescan method relative to control
[19] = tested on: Tyrosine-protein kinase ABL1 (Homo sapiens), P00519 [F317L]; assay: Inhibition of human non-phosphorylated ABL1 F317L mutant (S229 to K512 residues) expressed in mammalian expression system assessed as residual activity at 1 uM by Kinomescan method relative to control
[20] = tested on: Proto-oncogene tyrosine-protein kinase receptor Ret (Homo sapiens), P07949 [M918T]; assay: Inhibition of human partial length RET M918T mutant (E713 to D1014 residues) expressed in bacterial expression system assessed as residual activity at 1 uM by Kinomescan method relative to control
Chain of Proto-oncogene tyrosine-protein kinase receptor Ret (Homo sapiens), P07949 [M918T] (P07949 whole entry M918T, the tested form may be a part): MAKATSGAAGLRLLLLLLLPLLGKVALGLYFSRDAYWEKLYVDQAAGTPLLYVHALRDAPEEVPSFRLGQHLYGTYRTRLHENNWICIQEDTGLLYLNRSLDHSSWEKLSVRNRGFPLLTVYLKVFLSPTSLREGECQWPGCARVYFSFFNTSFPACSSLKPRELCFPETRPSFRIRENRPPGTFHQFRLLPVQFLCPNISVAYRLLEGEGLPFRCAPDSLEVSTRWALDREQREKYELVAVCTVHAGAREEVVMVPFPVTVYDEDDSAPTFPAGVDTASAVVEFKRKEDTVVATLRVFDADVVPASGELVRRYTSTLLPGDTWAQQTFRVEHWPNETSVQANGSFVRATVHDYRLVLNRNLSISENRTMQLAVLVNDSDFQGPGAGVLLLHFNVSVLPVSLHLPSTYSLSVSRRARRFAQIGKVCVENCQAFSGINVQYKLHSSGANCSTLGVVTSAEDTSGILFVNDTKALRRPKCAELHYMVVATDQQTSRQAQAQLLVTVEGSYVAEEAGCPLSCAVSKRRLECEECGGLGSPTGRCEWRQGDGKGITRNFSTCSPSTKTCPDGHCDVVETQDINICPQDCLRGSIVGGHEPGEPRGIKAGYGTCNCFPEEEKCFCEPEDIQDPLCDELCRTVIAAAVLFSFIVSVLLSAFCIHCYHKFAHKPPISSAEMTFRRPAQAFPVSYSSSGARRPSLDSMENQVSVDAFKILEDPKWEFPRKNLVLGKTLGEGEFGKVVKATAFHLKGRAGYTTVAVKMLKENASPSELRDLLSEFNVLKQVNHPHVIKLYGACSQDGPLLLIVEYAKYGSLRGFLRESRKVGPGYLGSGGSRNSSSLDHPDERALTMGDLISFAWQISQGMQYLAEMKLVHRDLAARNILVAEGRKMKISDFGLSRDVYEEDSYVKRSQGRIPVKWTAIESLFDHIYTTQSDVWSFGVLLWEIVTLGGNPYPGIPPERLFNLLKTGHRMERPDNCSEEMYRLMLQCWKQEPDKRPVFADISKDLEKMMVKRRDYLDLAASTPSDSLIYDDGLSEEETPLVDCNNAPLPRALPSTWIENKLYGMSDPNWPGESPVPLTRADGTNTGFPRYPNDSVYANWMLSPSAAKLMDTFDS

[21] = target: Cyclin-dependent kinase-like 3 (Homo sapiens) (UniProt Q8IVW4); assay: Inhibition of wild-type human partial length CDKL3 (M1 to D327 residues) expressed in bacterial expression system assessed as residual activity at 1 uM by Kinomescan method relative to control
Homo sapiens = species: Homo sapiens; assay: Inhibition of human partial length FLT3 ITD/D835V double mutant expressed in bacterial expression system assessed as residual activity at 1 uM by Kinomescan method relative to control
[22] = target: Serine/threonine-protein kinase N1 (Homo sapiens) (UniProt Q16512); assay: Inhibition of wild-type human partial length PKN1 (E598 to C948 residues) expressed in bacterial expression system assessed as residual activity at 1 uM by Kinomescan method relative to control
[23] = tested on: Tyrosine-protein kinase ABL1 (Homo sapiens), P00519 [Q252H]; assay: Inhibition of human phosphorylated ABL1 Q252H mutant expressed in mammalian expression system assessed as residual activity at 1 uM by Kinomescan method relative to control
[24] = target: Cyclin-dependent kinase 16 (Homo sapiens) (UniProt Q00536); assay: Inhibition of wild-type human partial length PCTK1 (G160 to A474 residues) expressed in mammalian expression system assessed as residual activity at 1 uM by Kinomescan method relative to control

C=CC(=O)Nc1cc(Nc2cc(-c3cccc(NC(=O)c4ccc(C(C)(C)C)cc4)c3C)cn(C)c2=O)ccc1C(=O)N1CCOCC1
Activity [1]: 87% | Activity [2]: 87% | Activity [3]: 96% | Activity [4]: 100% | Activity [5]: 97% | Activity [6]: 100% | Activity [7]: 100% | Activity [8]: 100% | Activity [9]: 91% | Activity [10]: 100% | Activity [11]: 100% | Activity [12]: 93% | Activity [13]: 98% | Activity [14]: 86% | Activity [15]: 100% | Activity [16]: 92% | GI50 (SKM-1): 7.1 µM | Activity [17]: 100% | Activity [18]: 94% | Activity [19]: 88% | Activity [20]: 100% | Activity [21]: 91% | Activity (Homo sapiens): 100% | Activity [22]: 100% | Activity [23]: 100% | Activity [24]: 99%
